Experimental findings from patent publication US20050014787A1, “5-amidino-2-hydroxybenzenesulfonamide derivatives medicinal compoistions containing the same medicinal use thereof and intermediates in the production thereof” (priority 2001, published 2005) are described below.

One assay concerns the target T1, human thrombin (Homo sapiens, UniProt P00734).
T1 construct: human thrombin (Sigma Chemical Company); purchased Sigma Chemical Company
Put plainly: Measurement of inhibitory activity for thrombin (S-2238 chromogenic substrate). The assay is classed as biochemical. As to conditions: S-2238 substrate, pH 8.4, 10 minutes at 37° C., absorbance 405 nm. Here is the method:
Measurement of inhibitory activity for thrombin
2.5 μL of a dimethylsulfoxide solution of a test compound, 187.5 μL of 100 mM tris-200 mM NaCl buffer (pH 8.4) and 50 μL of 1 mM S-2238 (Daiichi Pure Chemicals) aqueous solution were poured into 96 well microplate. Then 10 μL of 2.0 U/mL human thrombin (Sigma Chemical Company) in gelatin-glycine buffer was added and the mixture was incubated for 10 minutes at 37° C. The reaction was terminated with the addition of 50 μL of 60% acetic acid and absorbance (405 nm) was measured by a microplate reader (SPECTRAmax250, Molecular Devices).
The group with 2.5 μL of the dimethylsulfoxide solution instead of the test compound solution was defined as the control, and the group with 10 μL of the gelatin-glycine buffer solution instead of human thrombin was defined as the blank. The concentration of a test compound that inhibited the absorbance of control by 50% (IC50) was obtained, and this value was used as the index of inhibitory activity for thrombin.

Assay [1] has as its target T2, human activated blood coagulation factor X (Homo sapiens, UniProt P00742).
T2 construct: purchased Calbiochem
Put plainly: Measurement of inhibitory activity for activated blood coagulation factor X (S-2222 chromogenic substrate). The format is biochemical. To be noted: S-2222 substrate, pH 8.4, 10 minutes at 37° C., absorbance 405 nm. Here is the method:
Measurement of inhibitory activity for activated blood coagulation factor X
2.5 μL of a dimethylsulfoxide solution of a test compound, 187.5 μL of 100 mM tris-200 mM NaCl buffer (pH 8.4) and 50 μL of 1 mM S-2222 (Daiichi Pure Chemicals) aqueous solution were poured into 96 well microplate. Then 10 μL of 0.6 U/mL human activated blood coagulation factor X (Calbiochem) in gelatin-glycine buffer was added and the mixture was incubated for 10 minutes at 37° C. The reaction was terminated with the addition of 50 μL of 60% acetic acid and absorbance (405 nm) was measured by a microplate reader (SPECTRAmax250, Molecular Devices).
The group with 2.5 μL of the dimethylsulfoxide solution instead of the test compound solution was defined as the control, and the group with 10 μL of the gelatin-glycine buffer solution instead of human activated blood coagulation factor X was defined as the blank. The concentration of a test compound that inhibited the absorbance of control by 50% (IC50) was obtained, and this value was used as the index of inhibitory activity for activated blood coagulation factor X. Results were shown as Table 1.

T2 sequence (P00742 235-488 limits assumed): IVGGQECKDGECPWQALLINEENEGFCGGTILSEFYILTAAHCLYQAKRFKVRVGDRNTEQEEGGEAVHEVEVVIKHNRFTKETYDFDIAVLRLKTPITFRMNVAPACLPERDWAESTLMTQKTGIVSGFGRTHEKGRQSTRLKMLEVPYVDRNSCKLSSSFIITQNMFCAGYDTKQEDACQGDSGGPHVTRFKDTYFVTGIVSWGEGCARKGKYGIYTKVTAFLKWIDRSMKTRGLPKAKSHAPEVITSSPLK
T2 sequence (P00742 41-179 partner limits assumed): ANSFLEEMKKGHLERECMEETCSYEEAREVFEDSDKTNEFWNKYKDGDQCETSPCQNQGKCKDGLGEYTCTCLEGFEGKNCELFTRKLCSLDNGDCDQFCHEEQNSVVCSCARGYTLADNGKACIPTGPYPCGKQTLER

For `CC(C)c1ccc(CCN(CC(=O)N2CCOCC2)S(=O)(=O)c2cc(C(=N)N)ccc2O)cc1` [Compound 14, 5-Carbamimidoyl-2-hydroxy-N-[2-(4-isopropylphenyl)ethyl]-N-(2-morpholin-4-yl-2-oxoethyl)benzenesulfonamide], the IC50 (as a rule, the midpoint of a concentration-inhibition curve) at human thrombin came to 27 µM; in assay [1] it was 51 nM.

With `N=C(N)c1ccc(O)c(S(=O)(=O)NCCc2ccc(-c3ccccc3S(N)(=O)=O)cc2)c1` [Compound 15, 5-Carbamimidoyl-2-hydroxy-N-[2-(2′-sulfamoylbiphenyl-4-yl)-ethyl]benzenesulfnamide], the IC50 in assay [1] was 3.8 nM.

With `CC(C)c1ccc(CCN(C)S(=O)(=O)c2cc(C(=N)N)ccc2O)cc1` [Compound 17, 5-Carbamimidoyl-2-hydroxy-N-[2-(4-isopropylphenyl)ethyl]-N-methylbenzenesulfonamide], the IC50 at human thrombin was 26 µM; in assay [1], 160 nM.
